{"source": "patent US10798955B2", "about": "“Compositions of particulate coformulation” (Nektar Therapeutics, priority 2000, dated 2020)", "test": "Storage stability at room temperature and 100% relative humidity", "type": "physicochemical", "settings": "200 mg stored for a month at room temperature and 100% relative humidity", "method": "For the assessment of stability, 200 mg of the Example A6 product (60% w/w QS in EC) was stored for a month at room temperature and 100% relative humidity, alongside a sample of the as-received pure QS.", "data": [{"compound": "C=C[C@H]1C[N@@]2CC[C@H]1C[C@H]2[C@H](O)c1ccnc2ccc(OC)cc12", "note": "[quinine sulphate]", "values": [{"measurement": "powder physical appearance and flow properties after storage", "result": "signs of partial caking and a lower degree of powder flowability"}]}]}
